Measurements taken from patent US11298334B2, “Use of isothiocyanate compounds” (JC (WUXI) COMPANY, INC., priority 2016, dated 2022).

Columns and labels:
[1] = system: volunteers with only hyperlipidemia; assay: Auxiliary detection on blood lipids, 6 weeks; assay type: in vivo, human; settings: 10, 20 or 30 mg 3 times a day oral
Procedure: Using the same method as described in Example 3 except that 8 volunteers with only hyperlipidemia were recruited and using the same method as described in Example 3. The volunteers were randomly assigned into the following four groups at a ratio of 1:1:1:1: administration group (Group A): phenylethyl isothiocyanate 10 mg/time, 3 times a day; administration group (Group D): phenylethyl isothiocyanate 20 mg/time, 3 times a day; administration group (Group B): phenylethyl isothiocyanate 30 mg/time, 3 times a day; placebo group (Group C): phenylethyl isothiocyanate placebo 1 capsule/time, 3 times a day. Oral administration was continued for 6 weeks.

[2] = system: volunteers with benign prostatic hyperplasia accompanied by elevated bilirubin; assay: Auxiliary detection on total bilirubin and blood lipid, 24 weeks; assay type: in vivo, human; settings: 10, 20 or 30 mg 3 times a day oral
Procedure: Using the same method as described in Example 2, 24 volunteers with benign prostatic hyperplasia accompanied by elevated bilirubin were recruited. Using the same manner as described in Example 2, subjects meeting the entry criteria were randomly assigned into any of the following four groups at a ratio of 1:1:1:1: administration group (Group A): phenylethyl isothiocyanate 10 mg/time, 3 times a day; administration group (Group D): Phenylethyl isothiocyanate 20 mg/time, 3 times a day; administration group (Group B): phenylethyl isothiocyanate 30 mg/time, 3 times a day; placebo group (C group): phenylethyl isothiocyanate placebo 1 capsule/time, 3 times a day. Oral administration was continued for 24 weeks. The effectiveness and safety of the experiment were evaluated. Effectiveness: 1. benign prostatic hyperplasia: IPSS, QOL, prostate volume, maximal urinary flow rate, residual urine; 2. triglycerides; 3. lipoprotein cholesterol; 4. total bilirubin. Safety: occurrence, process, and solution of all adverse events during treatment.

[3] = system: SD rats; assay: Hypolipidemic activity in rats: serum triglyceride after 6 months oral gavage; assay type: in vivo, rat; settings: for TG (serum triglyceride level): at terminal of administration, x ± SD, n = 14
Procedure: Reagent: phenylethyl isothiocyanate, synthesized by Wuxi Jiexi Pharmaceutical Technology Co., Ltd. The chemical construction was determined by NMR, UV, IR, MS, etc., and its content and purity were determined by HPLC (>99%); Fulinmen Brand corn oil, manufactured by Dongliang Industry (Zhangjiagang) Co., Ltd.
Animals: Clean SD rats, half male and half female, weighed 80-100 g, were provided by Shanghai Slac Laboratory Animal Co., Ltd. Free access to drinking water, ambient temperature of 20-25° C., relative humidity of 40%-70%.
Experimental methods: Male rats with 123-149 g of body weight were randomly divided into 4 groups according to their body weights. Female rats with 116-142 g of body weight were randomly divided into 4 groups according to body weights. In the control group and high dose group, there were 60 in each group. In the medium-dose and low-dose groups, there were 40 in each group, half male and half female. 0, 20, 60, 120 mg/kg of phenethyl isothiocyanate was administered by oral gavage, wherein the test drug was diluted with corn oil. The rats were administered continuously for 6 months, and administered 6 days a week, and administered at the same time every morning.
Observation items: blood biochemical examination.

[4] = system: volunteers with only hyperbilirubinemia; assay: Auxiliary detection on total bilirubin, 6 weeks; assay type: in vivo, human; settings: 10, 20 or 30 mg 3 times a day oral
Procedure: The method was the same as described in Example 3, except that 8 volunteers with only hyperbilirubinemia were recruited in the medical research peers. Using the same manner as described in Example 3, the subjects were randomly assigned into any one of the following four groups at a ratio of 1:1:1:1: administration group (Group A): phenylethyl isothiocyanate 10 mg/time, 3 times a day; administration group (Group D): phenylethyl isothiocyanate 20 mg/time, 3 times a day; administration group (Group B): phenylethyl isothiocyanate 30 mg/time, 3 times a day; placebo group (C group): phenylethyl isothiocyanate placebo 1 capsule/time, 3 times a day. Oral administration was continued for 6 weeks.

[5] = system: patients with benign prostatic hyperplasia; assay: Multicenter randomized double-blind placebo-controlled trial, 24 weeks: serum triglyceride, lipoprotein cholesterol, total bilirubin; assay type: in vivo, human; settings: for serum high-density lipoprotein, average change value compared with baseline / serum high-density lipoprotein, percentage of average change compared with baseline: Centers No. 11, 13 and 14
Procedure: A multicenter, randomized, double-blind, placebo parallel control design was used to preliminarily evaluate the safety and efficacy of phenylethyl isothiocyanate capsules on the treatment of BPH patients. Subjects meeting the entry criteria were randomly assigned to any of the following four groups at a ratio of 1:1:1:1: administration group (Group A): phenylethyl isothiocyanate 10 mg/time, 3 times a day; administration group (group D): phenylethyl isothiocyanate 20 mg/time, 3 times a day; administration group (group B): phenylethyl isothiocyanate 30 mg/time, 3 times a day; placebo group (group C): phenylethyl isothiocyanate placebo 1 capsule/time, 3 times a day. Oral administration was continued for 24 weeks. Men between the ages of 50 and 75, healthy, with moderate benign prostatic hyperplasia, no signs of prostate cancer. A total of 240 men participated in the six-month trial. Effectiveness: 1. benign prostatic hyperplasia: IPSS, QOL, prostate volume, the maximal urinary flow rate, residual urine; 2. triglycerides; 3. lipoprotein cholesterol; 4. total bilirubin. Safety: occurrence, process, and solution of all adverse events during treatment. Among the 14 centers in the clinical trial, the serum triglyceride levels and high-density lipoprotein and low-density lipoprotein levels in serum of the subjects were all detected in the center No. 11, center No. 13, and center No. 14.

## S=C=NCCc1ccccc1 [phenylethyl isothiocyanate]
[1]
  high-density lipoprotein level, increase: 10-20%
  low density lipoprotein level, decrease: 10-25%
  triglyceride level, decrease: 10-25%
[2]
  high-density lipoprotein level, increase: 10-20%
  low density lipoprotein level, decrease: 15-25%
  total bilirubin level, decrease: 15-25%
  triglyceride level, decrease: 15-25%
[3]; female rats, 20 mg/kg
  decrease of triglycerides in serum compared with the 0 mg/kg group: 25.5%
[3]; female rats, 20 mg/kg oral gavage
  TG (serum triglyceride level): 2.13 ± 0.82 mmol/L
[3]; female rats, 60 mg/kg
  decrease of triglycerides in serum compared with the 0 mg/kg group: 41.2%
[3]; female rats, 60 mg/kg oral gavage
  TG (serum triglyceride level): 1.68 ± 0.63 mmol/L
[3]; female rats, 120 mg/kg
  decrease of triglycerides in serum compared with the 0 mg/kg group: 52.8%
[3]; female rats, 120 mg/kg oral gavage
  TG (serum triglyceride level): 1.35 ± 0.72 mmol/L
[3]; male rats, 20 mg/kg
  decrease of triglycerides in serum compared with the 0 mg/kg group: 24.1%
[3]; male rats, 20 mg/kg oral gavage
  TG (serum triglyceride level): 1.73 ± 0.79 mmol/L
[3]; male rats, 60 mg/kg
  decrease of triglycerides in serum compared with the 0 mg/kg group: 44.3%
[3]; male rats, 60 mg/kg oral gavage
  TG (serum triglyceride level): 1.27 ± 0.38 mmol/L
[3]; male rats, 120 mg/kg
  decrease of triglycerides in serum compared with the 0 mg/kg group: 56.1%
[3]; male rats, 120 mg/kg oral gavage
  TG (serum triglyceride level): 1.00 ± 0.22 mmol/L
[4]
  total bilirubin level, decrease: 10-25%
[5]; Group A, 30 mg (10 mg 3 times a day) oral, 24 weeks
  triglyceride, percentage of average change compared with baseline: −6.54%
[5]; Group A, 30 mg, 4 weeks
  total bilirubin, percentage of average change compared with the baseline: 2.23%
[5]; Group A, 30 mg, 8 weeks
  total bilirubin, percentage of average change compared with the baseline: −3.15%
[5]; Group A, 30 mg, 16 weeks
  total bilirubin, percentage of average change compared with the baseline: −4.46%
[5]; Group A, 30 mg, 24 weeks
  low-density lipoprotein, average change value compared with baseline: 0.0062
  low-density lipoprotein, percentage of average change compared with baseline: −0.88%
  total bilirubin levels, average decrease compared with the baseline: 8.91%
  total bilirubin, percentage of average change compared with the baseline: −8.91%
  triglyceride levels, average decrease compared with baseline: 6.54%
  serum high-density lipoprotein, average change value compared with baseline: 0.0063
  serum high-density lipoprotein, percentage of average change compared with baseline: 1.45%
[5]; Group B, 90 mg (30 mg 3 times a day) oral, 24 weeks
  triglyceride, percentage of average change compared with baseline: −8.59%
[5]; Group B, 90 mg, 4 weeks
  total bilirubin, percentage of average change compared with the baseline: 2.18%
[5]; Group B, 90 mg, 8 weeks
  total bilirubin, percentage of average change compared with the baseline: −0.45%
[5]; Group B, 90 mg, 16 weeks
  total bilirubin, percentage of average change compared with the baseline: −8.28%
[5]; Group B, 90 mg, 24 weeks
  low-density lipoprotein, average change value compared with baseline: 0.1925
  low-density lipoprotein, percentage of average change compared with baseline: 6.92%
  total bilirubin levels, average decrease compared with the baseline: 6.10%
  total bilirubin, percentage of average change compared with the baseline: −6.10%
  triglyceride levels, average decrease compared with baseline: 8.59%
  serum high-density lipoprotein, average change value compared with baseline: 0.0938
  serum high-density lipoprotein, percentage of average change compared with baseline: 7.77%
[5]; Group D, 60 mg (20 mg 3 times a day) oral, 24 weeks
  triglyceride, percentage of average change compared with baseline: −8.58%
[5]; Group D, 60 mg, 4 weeks
  total bilirubin, percentage of average change compared with the baseline: 5.21%
[5]; Group D, 60 mg, 8 weeks
  total bilirubin, percentage of average change compared with the baseline: 3.34%
[5]; Group D, 60 mg, 16 weeks
  total bilirubin, percentage of average change compared with the baseline: −1.82%
[5]; Group D, 60 mg, 24 weeks
  low-density lipoprotein, average change value compared with baseline: −0.0425
  low-density lipoprotein, percentage of average change compared with baseline: 0.05%
  total bilirubin levels, average decrease compared with the baseline: 8.55%
  total bilirubin, percentage of average change compared with the baseline: −8.55%
  triglyceride levels, average decrease compared with baseline: 8.58%
  serum high-density lipoprotein, average change value compared with baseline: 0.1013
  serum high-density lipoprotein, percentage of average change compared with baseline: 9.15%
